Measured values: the NIST ThermoML archive (doi:10.1021/je300974g)

How the values were obtained:
[1] = 101.33 kPa, Liquid, Vibrating tube method
[2] = xn = mol fraction of the nth substance listed; conditions: 101 kPa, Liquid, Vibrating tube method

CCNC=O [N-ethylformamide]
[1]
Conditions | mass density [kg/m3]
293.15 K | 951.59
298.15 K | 947.48
303.15 K | 943.29
308.15 K | 939.04
313.15 K | 934.78

CCNC=O [N-ethylformamide] + CCCOC(C)=O
mass density [kg/m3], [2]
Conditions | x1 = 0.1294 | x1 = 0.2456 | x1 = 0.3565 | x1 = 0.4694 | x1 = 0.5596 | x1 = 0.6587 | x1 = 0.7478 | x1 = 0.8363 | x1 = 0.9182
293.15 K | 892.25 | 899.54 | 906.52 | 913.89 | 919.91 | 926.72 | 933 | 939.47 | 945.56
298.15 K | 887.29 | 894.73 | 901.8 | 909.26 | 915.35 | 922.25 | 928.63 | 935.19 | 941.36
303.15 K | 882.35 | 889.93 | 897.09 | 904.67 | 910.86 | 917.78 | 924.29 | 930.93 | 937.11
308.15 K | 877.39 | 885.05 | 892.4 | 900.06 | 906.31 | 913.38 | 919.92 | 926.57 | 932.85
313.15 K | 872.28 | 880.14 | 887.6 | 895.34 | 901.71 | 908.84 | 915.46 | 922.22 | 928.54

CCCC(C)=O [pentan-2-one]
[1]
Conditions | mass density [kg/m3]
293.15 K | 807.47
298.15 K | 802.46
303.15 K | 797.53
308.15 K | 792.52
313.15 K | 787.44

CCCOC(C)=O [propyl ethanoate]
[1]
Conditions | mass density [kg/m3]
293.15 K | 887.97
298.15 K | 882.21
303.15 K | 876.54
308.15 K | 870.81
313.15 K | 864.95

C1CCOCC1 [tetrahydropyran]
[1]
Conditions | mass density [kg/m3]
293.15 K | 884.08
298.15 K | 878.95
303.15 K | 873.79
308.15 K | 868.67
313.15 K | 863.43
